Source: PMC8619202, “Optimization of Microwave-Assisted Green Method for Enhanced Solubilization of Water-Soluble Curcuminoids Prepared Using Steviol Glycosides” (Foods, 2021)
≈ marks a conversion by molar mass, not a printed value.

Key:
[1] = cited from earlier work; for solubility in dimethyl sulfoxide / solubility in ethanol / solubility in water: from C. longa
[2] = Storage stability of curcuminoids solubilized in steviol glycoside solutions, HPLC; details: for stability of solubilized curcuminoids at room temperature: 10% (w/v) SG, protected from light, 24 h
Description: (§1) In order to evaluate the stability in 10% (w/v) SGs, the water-soluble curcuminoids were analyzed by HPLC for 1 month. […] In order to achieve better solubility, transglycosylation is regarded as an important procedural phenomenon that leads to structural modifications and derivatizations that result in enhanced biological activities and improved solubility. Moreover, heating in the case of microwave irradiation is usually dependent on the nature of the sample, the solvent employed, and the irradiation power level mediated through the ionic conduction and dipole rotation (also known as dipole polarization) of the microwaves. In the absence of ions, water dipoles are found in the free form and may experience dipole rotation due to microwave radiation-induced oscillation.

[3] = Solubility of curcuminoids in the presence of steviol glycosides, with or without microwave or other physical treatment, HPLC; details: steviol glycoside 10% w/v; for Bisdemethoxycurcumin (mg/mL) NT / Curcumin (mg/mL) NT / Demethoxycurcumin (mg/mL) NT / Total Curcuminoids (mg/mL) NT: not treated by microwave
Description: The effect of water concentration to extract curcuminoids was investigated. […] The mixture in an ethanol solution was vortexed for 15 min and centrifuged at 12,000× g for 10 min (SupraR30, W × D × H: 710 × 1000 × 1260 mm, Hanil Scientific Inc., Gimp, Korea). The supernatant was transferred to a new tube and ethanol was evaporated. The resulting powders were dissolved in water, centrifuged at 12,000× g for 10 min, and filtered through a 0.20 μm membrane (Agilent, Santa Clara, CA, USA).
Weighing of the appropriate amounts of each steviol glycoside and curcuminoids was carried out, and they were put into 50 mL glass bottles. Furthermore, the suspension of curcuminoid–SG was subjected to heating by exposure to microwave irradiation in a microwave-assisted extractor (CEM, Matthews, NC, USA) at 100 W and 25 °C. Prior to conducting chromatographic analyses as per the reported method of Nguyen et al., the filtration of all samples was performed using a 0.45 μm nylon syringe filter (Millipore, Billerica, MA, USA). The quantitative concentration determination of curcuminoids and SGs was performed by employing series of standard solutions of curcuminoid in methanol with concentrations ranging from 0.15 to 10 μg/mL according to the reported method. Chromatographic separation for quantitative analysis was carried out using an Agilent 1200 liquid chromatographic system (Agilent Technologies, Palo Alto, CA, USA) equipped with an autosampler, quaternary HPLC pump, degasser, ZORBAX SB-C18 column (5 μm, 4.6 × 150 mm), and UV detector (VWD) set at 210 and 260 nm. The mobile phase for HPLC consisted of solvent A, which was 0.1% trifluoroacetic acid in water, and solvent B, which was 0.1% trifluoroacetic acid in acetonitrile. The solvent gradient was as follows (relative to solvent A): 0 min, 80% A; 10 min, 75% B; 20 min, 65% B; 30 min, 50% B; 40 min, 40%; 50 min, 30%; 60 min, 0% B; 0 min, 20%; 10 min, 25% B; 20 min, 35% B; 30 min, 50%; 40 min, 60%; 50 min, 70%; and 60 min, 100%. The column temperature was maintained at 30 °C with an injection volume of 10 μL at a flow rate of 1.0 mL/min.
as §1

Compound: O=C(/C=C/c1ccc(O)cc1)CC(=O)/C=C/c1ccc(O)cc1 [BDMC, bisdemethoxycurcumin]
- solubility in dimethyl sulfoxide [1]: 25000 µg/mL (≈ 81.1 mM)
- solubility in ethanol [1]: 10000 µg/mL (≈ 32.4 mM)
- solubility in water [1]: 11 µg/mL (≈ 0.0357 mM)

Compound: COc1cc(/C=C/C(=O)CC(=O)/C=C/c2ccc(O)c(OC)c2)ccc1O [Curcumin, curcumin]
- solubility in dimethyl sulfoxide [1]: 25000 µg/mL (≈ 67.9 mM)
- solubility in ethanol [1]: 10000 µg/mL (≈ 27.1 mM)
- solubility in water [1]: 11 µg/mL (≈ 0.0299 mM)

Compound: COc1cc(/C=C/C(O)=C/C(=O)/C=C/c2ccc(O)cc2)ccc1O [DMC, demethoxycurcumin]
- solubility in dimethyl sulfoxide [1]: 25000 µg/mL (≈ 73.9 mM)
- solubility in ethanol [1]: 10000 µg/mL (≈ 29.6 mM)
- solubility in water [1]: 11 µg/mL (≈ 0.0325 mM)

Compound: C=C1C[C@@]23CC[C@H]4[C@@](C)(CCC[C@@]4(C)C(=O)O[C@@H]4O[C@H](CO)[C@@H](O)[C@H](O)[C@H]4O)[C@@H]2CC[C@]1(O[C@@H]1O[C@H](CO)[C@@H](O)[C@H](O)[C@H]1O)C3 [R, rubusoside]
- stability of solubilized curcuminoids at room temperature [2]: highly stable
- stability of aqueous curcuminoid solutions on long-term storage [2]: did not exhibit good stability
- solubility of curcumin in rubusoside aqueous solution ([1]; 10% rubusoside aqueous solution (w/v)): 600 to 2300 µg/mL

Compound: C=C1C[C@@]23CC[C@H]4[C@@](C)(CCC[C@@]4(C)C(=O)O)[C@@H]2CC[C@]1(O[C@@H]1O[C@H](CO)[C@@H](O)[C@H](O)[C@H]1O)C3 [SMG, steviol mono-glucoside]
- Total Curcuminoids Ratio Microwave /NT (fold) [3]: 7.3 fold
- Bisdemethoxycurcumin (mg/mL) NT [3]: 0.04 ± 0.01 mg/mL
- Curcumin (mg/mL) NT [3]: 0.46 ± 0.1 mg/mL
- Demethoxycurcumin (mg/mL) NT [3]: 0.04 ± 0.01 mg/mL
- Total Curcuminoids (mg/mL) NT [3]: 0.54 ± 0.1 mg/mL
- Bisdemethoxycurcumin (mg/mL) Microwave [3]: 0.52 ± 0.1 mg/mL
- Curcumin (mg/mL) Microwave [3]: 2.52 ± 0.15 mg/mL
- Demethoxycurcumin (mg/mL) Microwave [3]: 0.88 ± 0.1 mg/mL
- Total Curcuminoids (mg/mL) Microwave [3]: 3.92 ± 0.5 mg/mL

Compound: C=C1C[C@@]23CC[C@H]4[C@@](C)(CCC[C@@]4(C)C(=O)O[C@@H]4O[C@H](CO)[C@@H](O)[C@H](O)[C@H]4O)[C@@H]2CC[C@]1(O[C@@H]1O[C@H](CO)[C@@H](O)[C@H](O)[C@H]1O[C@@H]1O[C@H](CO)[C@@H](O)[C@H](O)[C@H]1O)C3 [ST, stevioside]
- stability of solubilized curcuminoids at room temperature [2]: highly stable

Compound: α-glucosyl stevioside [STG]
- stability of aqueous curcuminoid solutions on long-term storage [2]: very good stability
- Total Curcuminoids Ratio Microwave /NT (fold) [3]: 7.0 fold
- Bisdemethoxycurcumin (mg/mL) NT [3]: 0.04 ± 0.01 mg/mL
- Curcumin (mg/mL) NT [3]: 0.51 ± 0.2 mg/mL
- Demethoxycurcumin (mg/mL) NT [3]: 0.05 ± 0.01 mg/mL
- Total Curcuminoids (mg/mL) NT [3]: 0.61 ± 0.1 mg/mL
- Bisdemethoxycurcumin (mg/mL) Microwave [3]: 0.69 ± 0.2 mg/mL
- Curcumin (mg/mL) Microwave [3]: 2.72 ± 0.3 mg/mL
- Demethoxycurcumin (mg/mL) Microwave [3]: 0.83 ± 0.1 mg/mL
- Total Curcuminoids (mg/mL) Microwave [3]: 4.24 ± 0.6 mg/mL
